Like-named read-outs stand apart in the source and are kept apart here. Blank lines part the entries; values can stand above or below the molecule they belong to.
Columns and labels:
[1] = test system: immature ovariectomized rats; experiment: Estrogen antagonistic activity: inhibition in 17α-ethynylestradiol induced uterine weight gain in immature ovariectomized rats; assay type: in vivo, rat; conditions: 3 days
Description: Twenty-one-day-old immature female rats are bilaterally ovariectomized under light ether anaesthesia and after post-operative rest for 7 days, are randomized into different treatment groups. Each rat receives the compounds of the invention and 0.02 mg/kg dose of 17-alfa-ethynylestradiol in 10% ethanol-distilled water once daily for 3 consecutive days on days 28-30 of age. A separate group of animals receiving only 17-alfa-ethynylestradiol (0.02 mg/kg) in 10% ethanol-distilled water for similar duration are used for comparison. At autopsy on day 31 of age, vaginal smear of each rat is taken and uterus is carefully excised, gently blotted, weighed and fixed for histology and histomorphometry using image analysis. Inhibition in 17-alfa-ethynylestradiol-induced premature opening of vagina, cornification of vaginal epithelium, increase in uterine fresh weight, total uterine and endometrial area and uterine luminal epithelial cell height are taken as parameters for evaluation of estrogen antagonistic activity.

[2] = test system: immature ovariectomized rats; experiment: Estrogen agonistic activity: increase in uterine weight in immature ovariectomized rats; assay type: in vivo, rat; conditions: 3 days, percent of ovariectomized + vehicle group
Description: Twenty-one-day-old immature female rats are bilaterally ovariectomized under light ether anaesthesia and, after post-operative rest for 7 days, are randomized into different treatment groups. Each rat receives the compound of the invention once daily for 3 consecutive days on days 28-30 of age. A separate group of animals receiving only the vehicle for similar duration serves as control. A autopsy 24 h after the last treatment on day 31 of age, vaginal smear of each rat is taken and uterus is carefully exised, gently blotted, weighed and fixed for histology and histomorphometry using image analysis. Premature opening of vagina, cornification of vaginal epitelium, increase in uterine fresh weight, total uterine and endometrial area and uterine luminal epithelial cell height are taken as parameters for evaluation of estrogen agonistic activity in comparision to rats of vehicle control group.

[3] = test system: MCF-7 cells; experiment: Antiproliferative/cytotoxic activity in cultured MCF-7 cells (SRB assay); assay type: cell-based; conditions: Homo sapiens, MCF7, 48 h, MCF-7, 48 h
Description: The procedure is based on the following methods: New calorimetric assay for anticancer drug screening, Skehan et al., J Natn Cancer Inst, 82,1107, 1990 and Feasibility of a high-flux anticancer drug screen using a diverse panel of cultured human tumor cell lines, J Natn Cancer Inst, 83,757, 1991.
A fully confluent flask of MCF-7 cells in trypsinized and 10^4 cells/well are plated in a 96 welled flat bottomed plate in 200 μl Minimum Essential Medium (MEM), pH 7.4 and allowed to attach for 24 h at 37° C. in a humidified CO2 incubator. Subsequently, the compound of invention dissolved in DMSO or ethanol is added at a specified concentration and further incubated for 48 h as before. The cells are then fixed in 50 μl cold 50% TCA and incubated for 1 h at 4° C. The supernatant is discarded and the plate is washed five times with deionized water and air-dried. 100 μl of 0.4% (w/v) Sulforhodamine B (SRB) in 1% acetic acid is added to each well and incubated at room temperature for 30 minutes. Unbound SRB is removed by five washes with chilled 1% acetic acid and the plate is air-dried. 200 μl of unbuffered 10 mM Tris base is added to solublize the bound stain for 5 minutes at room temperature and O.D. is read at 560 nm in a plate reader. The graph is plotted between O.D. and concentration and LC50 is calculated with respect to tamoxifen, which is used as a positive control.

[4] = target: T1, estrogen receptors (Rattus norvegicus, UniProt P06211); experiment: Relative binding affinity (RBA) to estrogen receptors, 3H-estradiol competition assay; parameters: key: % of 17-beta-estradiol binding affinity (estradiol = 100); conditions: relative to 17-beta-estradiol (=100, percentage value); rat uterine cytosol, 3H-E2, 18 hrs at 4° C.
T1 construct: Aliquot of uterine cytosol (200 μl; 2 uteri per ml) prepared in TEA buffer; from tissue; host or cells: uterine cytosol of immature estradiol-primed 20-21 day old rats
T1 sequence (P06211 1-600): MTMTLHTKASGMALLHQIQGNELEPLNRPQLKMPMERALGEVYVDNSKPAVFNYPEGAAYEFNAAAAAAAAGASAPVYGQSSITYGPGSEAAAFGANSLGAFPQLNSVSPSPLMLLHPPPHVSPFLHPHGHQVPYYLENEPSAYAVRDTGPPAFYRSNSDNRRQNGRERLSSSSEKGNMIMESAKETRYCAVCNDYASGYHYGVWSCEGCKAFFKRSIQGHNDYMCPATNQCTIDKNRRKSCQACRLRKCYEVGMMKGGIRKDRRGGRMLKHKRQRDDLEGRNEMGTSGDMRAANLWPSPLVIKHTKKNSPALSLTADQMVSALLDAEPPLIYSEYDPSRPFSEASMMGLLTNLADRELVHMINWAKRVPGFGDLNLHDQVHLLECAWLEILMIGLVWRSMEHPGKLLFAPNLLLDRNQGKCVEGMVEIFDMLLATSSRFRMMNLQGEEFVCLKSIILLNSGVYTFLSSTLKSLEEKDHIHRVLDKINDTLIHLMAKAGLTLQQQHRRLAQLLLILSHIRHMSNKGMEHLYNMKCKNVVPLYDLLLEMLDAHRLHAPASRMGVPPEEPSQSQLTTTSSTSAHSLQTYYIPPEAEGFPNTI
Description: The relative binding affinity (RBA) of the compounds for estrogen receptor is determined by competition assay, employing ^3H-estradiol (^3H-E2) as the radioligand. The test ligands and ^3H-E2 are incubated at 4° C. with cystol estrogen receptors obtained from uteri of immature estradoil-primed (1 μg/rat 24 h before autopsy) 20-21 days old rats. Aliquot of uterine cytosol (200 μl; 2 uteri per ml) prepared in TEA buffer (10 mM Tris, 1.5 mM EDTA, 0.02% sodium azide, pH 7.4) are incubated in duplicate with a fixed concentration of ^3H-E2 in the absence or presence of various concentrations of the competitor substance dissolved in 30 μl of the TEA buffer containing DMF as co-solvent (final concentration of DMF in the incubation mixture never exceeded 5%) for 18 hrs at 4° C. At the end of this period, dextran coated charcoal (5% Norit 0.5% dextran) suspension in 100 μl of TEA buffer is added to each tube, briefly vortexed and allowed to stand for 15 minutes at 4° C. The mixture is centrifuged at 800 g for 10 minutes and the supernatants counted for radioactivity in 10 ml of a dioxane-based scintillation fluid. RBA of the text compound is computed from a graph plotted between percent bound radioactivity verses log concentration of the test substance. […] This when multiplied with 100 gives the percentage value designated as RBA.

[5] = test system: adult female rats; experiment: Post-coital antifertility efficacy in adult female rats; assay type: in vivo, rat; conditions: daily dose 10 mg/kg, oral, days 1-7 post-coitum
Source text: Adult female rats are caged overnight with coeval males of proven fertility and their vaginal smears are checked on the following morning. The day of presence of spermatozoa in the vaginal smear is taken as day 1 of pregnancy. Mated rats are isolated and randomized into various treatment groups and treated orally with the compound of invention or the vehicle on days 1-7/1-5 post-coitum. Animals of all the groups are autopsied on day 10 post-coitum and number and status of corpora lutea and implantation sites in each rat are recorded. The compounds of the present invention are considered active if there is complete absence of implantations in the uterus of all rats, in comparison to presence of normal implantations in the uterus of rats of vehicle control group.

Structure (SMILES): CCCCN(C)CCCCCn1c2c(c3ccccc31)CCSc1ccccc1-2.O=C1O[C@H]([C@@H](O)CO)C(O)=C1O [Example number 15, 12-[5-(N-butylmethylamino)pentyl]-6,7-dihydro-12H-benzothiepino [5,4-b]indole ascorbic acid salt]
- Percent inhibition in 17α-ethynylestradiol induced uterine weight gain ([1]; daily dose 1 mg/kg with 0.02 mg/kg 17-alfa-ethynylestradiol): 10.00%
- Percent inhibition in 17α-ethynylestradiol induced uterine weight gain ([1]; daily dose 3 mg/kg with 0.02 mg/kg 17-alfa-ethynylestradiol): 23.00%
- Percent inhibition in 17α-ethynylestradiol induced uterine weight gain ([1]; daily dose 10 mg/kg with 0.02 mg/kg 17-alfa-ethynylestradiol): 15.00%
- Percent increase in uterine weight ([2]; daily dose 1 mg/kg): 11.00%
- Percent increase in uterine weight ([2]; daily dose 3 mg/kg): 15.00%
- Percent increase in uterine weight ([2]; daily dose 10 mg/kg): 11.50%

Structure (SMILES): CC/C(=C(\c1ccccc1)c1ccc(OCCN(C)C)cc1)c1ccccc1 [Tamoxifen, reference compound]
- CC50 ([3]; read-out: LC50, Test-1): 18.5 µM
- CC50 ([3]; read-out: LC50, Test-2): 5.5 µM
- CC50 ([3]; read-out: LC50, Test-3): 12.4 µM
- CC50 ([3]; read-out: LC50, Test-4): 9.8 to 10 µM

Structure (SMILES): C#C[C@]1(O)CC[C@H]2[C@@H]3CCc4cc(O)ccc4[C@H]3CC[C@@]21C [17α-Ethynylestradiol, reference compound]
- Percent increase in uterine weight ([2]; daily dose 0.01 mg/kg): 419%

- RBA [4]: <0.001
Structure (SMILES): Oc1ccc2c(c1)c1c(n2CCCCCN2CCCCC2)-c2ccccc2SCC1 [Example number 29, 9-Hydroxy-12-[5-(piperidine-1-yl)pentyl]-6,7-dihydro-12H-benzothiepino [5,4-b]indole]
- % Efficacy [5]: Inactive

- RBA [4]: 0.032
Structure (SMILES): CCCCN(C)CCCCCn1c2c(c3cc(OC)ccc31)CCSc1cc(OC)ccc1-2 [Example number 34, 3,9-Dimethoxy-12-[5-(N-butylmethylamino)pentyl]-6,7-dihydro-12H-benzothiepino [5,4-b]indole]

Structure (SMILES): COc1ccc2c(c1)SCCc1c-2n(CCCCCN2CCCCC2)c2ccccc12 [Example number 22, 3-Methoxy-12-[5-(piperidine-1-yl)pentyl]-6,7-dihydro-12H-benzothiepino [5,4-b]indole]
- RBA [4]: <0.001
- CC50 ([3]; read-out: LC50, Test-4): 19.5 µM

- RBA [4]: 0.053
Structure (SMILES): c1ccc2c(c1)SCCc1c-2n(CCCCCCN2CCCC2)c2ccccc12 [Example number 19, 12-[6-(Pyrrolidine-1-yl)hexyl]-6,7-dihydro-12H-benzothiepino [5,4-b]indole]

Structure (SMILES): COc1ccc2c(c1)SCCc1c-2n(CCCCCN2CCCC2)c2ccc(OC)cc12 [Example number 33, 3,9-Dimethoxy-12-[5-(pyrrolidine-1-yl)pentyl]-6,7-dihydro-12H-benzothiepino [5,4-b]indole]
- RBA [4]: <0.001
- CC50 ([3]; read-out: LC50, Test-4): 18.2 µM

Structure (SMILES): COc1ccc2c(c1)SCCc1c-2n(CCCCCN2CCCCC2)c2ccc(OC)cc12 [Example number 32, 3,9-Dimethoxy-12-[5-(piperidine-1-yl)pentyl]-6,7-dihydro-12H-benzothiepino [5,4-b]indole]
- RBA [4]: <0.001
- CC50 ([3]; read-out: LC50, Test-4): 28 µM

- RBA [4]: 0.10
Structure (SMILES): CCCCN(C)CCCCCCn1c2c(c3ccccc31)CCSc1ccccc1-2 [Example number 20, 12-[6-(N-butylmethylamino)hexyl]-6,7-dihydro-12H-benzothiepino [5,4-b]indole]

Structure (SMILES): c1ccc2c(c1)SCCc1c-2n(CCCCN2CCCCC2)c2ccccc12 [Example number 9, 12-[4-(Piperidine-1-yl)butyl]-6,7-dihydro-12H-benzothiepino [5,4-b]indole]
- CC50 ([3]; read-out: LC50, Test-2): 37.4 µM

Structure (SMILES): c1ccc2c(c1)SCCc1c-2n(Cc2ccc(OCCCCCN3CCCCC3)cc2)c2ccccc12 [Example number 60, 12-[4-(5-Piperidin-1-yl-pentyloxy)benzyl]-6,7-dihydro-12H-benzothiepino [5,4-b]indole]
- CC50 ([3]; read-out: LC50, Test-4): 18.4 µM
- % Efficacy [5]: Inactive

Structure (SMILES): Oc1ccc2c(c1)SCCc1c-2n(CCCCCN2CCCC2)c2ccccc12 [Example number 25, 3-Hydroxy-12-[5-(pyrrolidine-1-yl)pentyl]-6,7-dihydro-12H-benzothiepino [5,4-b]indole]
- RBA [4]: 0.83
- CC50 ([3]; read-out: LC50, Test-2): 15 µM

Structure (SMILES): c1ccc2c(c1)SCCc1c-2n(Cc2ccc(OCCCCCN3CCCCC3)cc2)c2ccccc12 [Example number 43, 12-[4-(5-Piperidin-1-yl-pentyloxy)benzyl]-6,7-dihydro-12H-benzothiepino [5,4-b]indole]
- % Efficacy [5]: Inactive

Structure (SMILES): COc1ccc2c(c1)SCCc1c-2n(CCCCCN2CCCC2)c2ccccc12 [Example number 23, 3-Methoxy-12-[5-(pyrrolidine-1-yl)pentyl]-6,7-dihydro-12H-benzothiepino [5,4-b]indole]
- RBA [4]: <0.001
- CC50 ([3]; read-out: LC50, Test-4): 60 µM

Structure (SMILES): c1ccc2c(c1)SCCc1c-2n(CCCN2CCCCC2)c2ccccc12 [Example number 7, 12-[3-(Piperidine-1-yl)propyl]-6,7-dihydro-12H-benzothiepino [5,4-b]indole]
- inhibition in vivo at 10 mg/kg/day ([1]; Rattus norvegicus, 72 h, daily dose 10 mg/kg with 0.02 mg/kg 17-alfa-ethynylestradiol, read-out: Percent inhibition in 17α-ethynylestradiol induced uterine weight gain): 15.4%
- CC50 ([3]; read-out: LC50, Test-1): 46 µM
- change in vivo at 3 mg/kg ([2]; Rattus norvegicus, 72 h, daily dose 3 mg/kg): 24.6%
- change in vivo at 10 mg/kg ([2]; Rattus norvegicus, 72 h, daily dose 10 mg/kg): 109%
- % Efficacy [5]: Inactive
